Measurements as given in patent publication US12168003B2, “Selective inhibition of T follicular helper cells for treatment of autoimmune disorders” (priority 2019, dated 2024).

Legend:
[1] = system: EAE mice; assay: Active EAE (MOG33-55/CFA), 4EGI-1 after onset of clinical symptoms; format: in vivo, mouse
Procedure: Ten-week old female mice purchased from Jackson Laboratory were subcutaneously injected at two sites with 100 μL […] emulsified in CFA (Hooke Labs) per flank. On the same day, 6 hours later, and on day 2, mice were injected with 100 ng of pertussis toxin in 200 μL i.p. Mice were monitored daily and scored on a scale of 0-5 where 0, no disease; 1, tail paralysis; 2; hind limb paresis; 3, complete hind limb paralysis; 4, front limb weakness and hind limb paralysis, and 5, moribund state. When stated, mice were either administered 25 mg/kg 4EGI-1 or vehicle i.p. from d 0 to 21 following EAE induction or 75 mg/kg 4EGI-1 or vehicle i.p. from day 12 to 21 following EAE induction and randomization. LFB-H images imported into FIJI underwent color deconvolution to isolate myelin staining. A binary image was generated and % myelination of the spinal cord was calculated. Spinal cords from mice not subjected to EAE were set to 100% and all other samples from the same group were normalized. H&E images imported into FIJI underwent color deconvolution to isolate hematoxylin staining. A binary image was generated and % infiltration of the spinal cord of was calculated. Five-micron sections of paraffin embedded tissue were stained with Akoya Biosciences® Opal™ multiplex automation kit reagents unless stated otherwise. Automated staining was performed on Leica BondRX® autostainer. The protocol was performed according to manufacturers' instructions with primary antibodies to CD19 (Cell Signaling Technology, cat #90176) and CD4 (Cell Signaling Technology, cat #25229). Briefly, all slides underwent sequential epitope retrieval with Leica Biosystems epitope retrieval 2 solution (EDTA based, pH9, Cat. AR9640), primary and secondary antibody incubation and tyramide signal amplification (TSA) with Opal® fluorophores Op690 and Op520. Primary and secondary antibodies were removed during epitope retrieval steps while fluorophores remain covalently attached to the epitope. Semi-automated image acquisition was performed on a Vectra® Polaris multispectral imaging system. After whole slide scanning at 10× the tissue was manually outlined to select fields for multispectral imaging at 20×. Phenochart® software from Akoya Biosciences was used for spectral unmixing of the whole slide scans. Scans were imported into QuPath and representative images were exported into FIJI.

[2] = system: OT2 T cells; assay: OT2 T cell pre-treatment with 4EGI-1 before adoptive transfer; format: in vivo, mouse; conditions: 20 μM 4EGI-1 1 hour before transfer
Procedure: For functional TFH studies: OT2 T cells were isolated and activated, as described, and treated with vehicle or 20 μM 4EGI-1 for 1 hour at 37° C. in vitro prior to transfer of 2×10^6 OT2 T cells i.p. per CD45.1 recipient. Recipient animals were immunized with 100 μg OVA alum 4 days prior. Three days following transfer and 7 days following initial immunization, OT2 T cells that had formed TFH cells were determined.
For long-term studies: OT2 T cells were isolated and activated, as described, and treated with vehicle or 20 μM 4EGI-1 for 1 h at 37° C. in vitro prior to transfer of 12×10^6 OT2 T cells i.p. per CD45.1 recipient. OT2 T cells were enumerated 34 days post transfer and intracellular levels of eIF4E were determined.

[3] = system: eIF4E cap-dependent protein synthesis in the CD4+ T cell compartment; assay: SUnSET protein synthesis assay in CD4+ T cells of mice dosed with 4EGI-1; format: in vivo, mouse; conditions: 25 mg/kg daily
Procedure: Determination of eIF4E activity in vivo should compare untreated to treated animals. Specimens may include single-cell suspensions of splenocytes isolated using Percoll gradient purification followed by plating in X-VIVO media (Lonza) containing 5% human AB serum (Sigma) and Glutamax at 37° C. for one hour and subjected to SuNSET assay for 10 minutes to determine active protein synthesis rates according to manufacturer instructions (AG Scientific) and shown in FIGS. 10A and 14B.
Mice were immunized with 100 μg OVA/Alum and 7 days following, spleens were harvested and single-cell suspensions were generated. Splenocytes were incubated in mouse T cell media (detailed in Silencing of eIF4E in OT2 T cells by lentivirus transduction) with 0-25 μM 4EGI-1 for 4 hours at 37° C. Cells were stained with a live/dead viability marker and then for extracellular expression of CD4, CXCR5, PD-1, or ICOS or intranuclear expression of BCL6. For the SuNSET assay, cells from above were incubated 37° C. with 10 μg/mL puromycin for 10 minutes. Control samples were incubated with puromycin and 100 μg/mL cycloheximide. Cells were incubated with a live/dead viability marker and extracellular stain prior to fixation and permeabilization (BD Biosciences Fixation/Permeabilization Solution) and intracellular staining with anti-puromycin followed by anti-mouse IgG2a antibody conjugated to Alexa Fluor 488.

[4] = system: differentiated TH1, TH2 or TH17 cells; assay: In vitro CD4+ T cell differentiation and cytokine production; format: cell-based, mouse; conditions: 20 μM 4EGI-1, 48 hours
Procedure: Naïve CD4^+ T cells were isolated (EasySep™ Naïve CD4^+ T cell isolation; StemCell) and incubated in mouse T cell media (described under “Silencing of eIF4E in OT2 T cells by lentivirus transduction section”) containing soluble 1 μg/mL anti-CD28, cytokines, and anti-cytokine antibodies as detailed for polarization to TH1: 10 ng/mL mouse IL-12, 50 U/mL human IL-2, 10 μg/mL anti-mouse IL-4; TH2: 10 ng/mL mouse IL-4, 50 U/mL human IL-2, 10 μg/mL anti-mouse IFN-γ; TH17: 20 ng/mL mouse IL-6, 10 ng/mL mouse IL-23, 10 ng/mL mouse IL-113, 2 ng/mL human TGF-β1, 50 U/mL human IL-2 […], 10 μg/mL anti-mouse IFN-γ; and Treg: 2 ng/mL mouse TGFβ, 300 U/mL human IL-2. TH1, TH2, and TH17 differentiation kits (Cytobox) along with human IL-2 were purchased from Miltenyi Biotec. Mouse TGFβ was purchased from BioLegend®. Naïve CD4^+ T cells in conditions described above were activated on 10 μg/mL anti-CD3 coated plates for 3 days. Following differentiation, 20 μM 4EGI-1 was added to T cell cultures for 48 hours. Supernatant was removed and cytokine levels were determined using LEGENDPlex Mouse Th Cytokine Panel (BioLegend®).

SMILES: O=C(O)C(Cc1ccccc1[N+](=O)[O-])=NNc1nc(-c2ccc(Cl)c(Cl)c2)cs1 (mixture of isomers) [4EGI-1]
- day by which mice entered remission ([1]; 75 mg/kg from day 12): ≤ 15 days
- decrease of CD4+ T cells producing IFN-γ in spinal cord and brain ([1]; 75 mg/kg from day 12): 4 fold
- decrease of CD4+ T cells producing IL-17A in spinal cord and brain ([1]; 75 mg/kg from day 12): 4 fold
- decreased infiltration and retention of CD4+ T cells in brain ([1]; 75 mg/kg from day 12): 4 fold
- time to marked improvement in clinical symptoms after 4EGI-1 administration ([1]; 75 mg/kg from day 12): 2 to 3 days
- spinal cord immune cell infiltration ([1]; 75 mg/kg from day 12, H&E): marked reduction
- weight compared to vehicle-treated animals ([1]; 75 mg/kg from day 12, day 18): increased
- decreased infiltration and retention of CD4+ T cells in spinal cord ([1]; 75 mg/kg from day 12, day 21): 4 fold
- decreased levels of splenic TFH cells ([1]; 75 mg/kg from day 12, day 21): 3 fold
- demyelination compared to vehicle-treated mice ([1]; 75 mg/kg from day 12, day 21): reduced
- myelination regained, relative to normal levels ([1]; 75 mg/kg from day 12, day 21, Luxol fast blue): ~90%
- ELFs / CD4+ T cell clusters in spinal cord ([1]; 75 mg/kg from day 12, immunofluorescence): smaller clusters
- progression of disease ([1]; 75 mg/kg from day 12, vs vehicle-treated mice): inhibited
- OT2 T cells populating the spleen vs non-treated OT2 T cells ([2]; 34 days post-transfer): equal
- OT2 T cells populating the spleen vs non-treated OT2 T cells ([2]; assayed 7 days): equal
- intracellular levels of eIF4E in recovered OT2 T cells ([2]; day 34 post-transfer): sustained reduction
- reduction in number of OT2 TFH cells in the spleen ([2]; following OVA/Alum immunization): two-thirds
- tolerability ([3]; mice): well tolerated
- inhibition of eIF4E cap-dependent protein synthesis in the CD4+ T cell compartment ([3]; uninfected mice, SUnSET (FIG. 1A)): approximately 30%
- secretion of IFN-γ or TNF-α by differentiated TH1 cells [4]: not altered
- secretion of IL-13 by in vitro differentiated TH2 cells [4]: did not affect
- secretion of IL-17A or IL-17F by differentiated TH17 cells [4]: not altered
